{"source": "patent US4708962A", "about": "“Antiviral and antitumor cyclohexadienone compositions” (Harbor Branch Oceanographic Institution, Inc., priority 1985, dated 1987)", "key": {"[1]": {"system": "ileocecal adenocarcinoma HCT-8", "assay": "Cytotoxicity assay, ileocecal adenocarcinoma HCT-8", "assay_type": "cell-based", "details": "Homo sapiens, 48 h, summary table, read-out: Test Cells at (ID 50), HCT-8", "protocol": "(§1) The following assay method was utilized to illustrate the antitumor effectiveness of compounds 1-7.\n(§2) L1210 And P388 MOUSE LEUKEMIA CELL; ILEOCECAL ADENO CARCINOMA HCT-8; AND LUNG CARCINOMA A549; CYTOXICITY ASSAY 24-WELL PLATE SCREENING ASSAY AND TUBE ASSAY PROTOCOL\n(§3) Media--Dulbeccos with glucose and pyruvate (Biologos, Inc) with 10% horse serum, (Biologos, Inc) and 1.0 ug/ml gentamicin (Gibco).\n(§4) Finnpipette with 5 to 50 ul increments and Finnpipette with 50 to 200 ul increments.\n(§5) 1. A sample of the composition to be assayed is added to each well or tube in an amount of from 200 ug/ml and 100 ug/ml for screening. For DDC of known active compounds use log concentrations from 100 ug/ml to 0.01 ug/ml for range-finding assay; when range has been determined, use five concentrations between highest and lowest active concentrations.\n(§6) 2. Add 2.0 ml of 5×10^4 cell suspension in media to each well or tube. Tubes are loosely covered with parafilm.\n(§7) 3. Incubate in 5% CO2 incubator 48 hours.\n(§8) 4. Visually read plates with inverted microscope, comparing with solvent control. Assign activity as follows:\n(§9) 1+=75-89% of control growth\n(§10) 2+=50-74% of control growth\n(§11) 3+=25-49% of control growth\n(§12) 4+=<25% of control growth\n(§13) Repeat all positive samples using tube assay.\n(§14) 5. For Tube assays--Mix tube well on vortex and remove 0.5 ml aliquot and add to 9.5 ml nf diluent fluid (Isoton-Coulter) in Accuvette (Coulter) and mix well by inversion immediately before counting, taking care not to produce excessive bubbles. Count on Coulter Counter (Counter is set to count 0.5 ml of the solution, therefore counts may be converted to cell/ml in original assay tube by multiplying count by 40.\n(§15) Positive control--Vinblastine or Vincristine in aqueous solution."}, "lung carcinoma A549": {"system": "lung carcinoma A549", "assay": "Cytotoxicity assay, lung carcinoma A549", "assay_type": "cell-based", "details": "Homo sapiens, 48 h, summary table, read-out: Test Cells at (ID 50), A549", "protocol": "as §1, §2, §3, §4, §5, §6, §7, §8, §9, §10, §11, §12, §13, §14, §15"}, "[2]": {"system": "P-388 murine leukemia cells", "assay": "Cytotoxicity assay, P388 mouse leukemia cells", "assay_type": "cell-based", "protocol": "as §1, §2, §3\n(§16) Cells--L1210 and P-388 mouse leukemia cells (American Type Culture Collection) in media at a concentration of 5×10^4 cells/ml. Sterile 24-well culture plates (Nunc) for screening or 12×75 mm glass culture tubes (Becton-Dickinson) for tube assay. Microdispenser with 1 to 5 ul increments (Drummond Scientific Co. Broomall PA).\nas §4, §5, §6, §7, §8, §9, §10, §11, §12, §13, §14, §15"}, "cells": {"system": "cells", "assay": "Zone of cytotoxicity in the antiviral disk assay", "assay_type": "cell-based", "details": "read at Day 5, disk assay", "protocol": "The following assay method was utilized to illustrate the antiviral effectiveness of compound (1).\n(8) Once detached, shake vigorously and immediately add 8 ml medium and shake again.\n(9) Count cells. (To 0.5 ml cell suspension add 0.1 ml trypan blue. Wait 5-10 minutes. Count 4 corner squares and middle square of 5×5 array in hemocytometer. Blue cells are dead. Total count per 10 ml in culture\n(11) For assay, add 1×10^6 cells to each well (6 wells per culture dish). Bring each well to 2 ml with fresh medium.\n(5) Place disks on surface and push through (1 mg/disc, 0.5 mg/disc, 0.25 mg/disc, etc. for crude extracts).\n(6) Incubate 48 hr. (making sure dishes remain level).\n(1) Add 2 ml neutral red medium."}, "HSV-I": {"system": "HSV-I", "assay": "Antiviral assay: inhibition of HSV-I plaque formation (disks pushed into methyl cellulose overlay)", "assay_type": "cell-based, herpes simplex-I", "details": "for 25 to 80 plaque forming units of virus cells", "protocol": "The following assay method was utilized to illustrate the antiviral effectiveness of compound (1). (1) Remove 75 cm^2 culture flasks from incubator (these were plated the previous week). (2) Aspirate medium. (3) Wash with 10 ml PBSA or Puck's Saline. (4) Aspirate. (5) Wash a second time with 10 ml PBSA or Puck's Saline. (6) Aspirate. (7) Add 2 ml trypsin/EDTA. Incubate until cells detach (10-20 min). (8) Once detached, shake vigorously and immediately add 8 ml medium and shake again. (9) Count cells. (To 0.5 ml cell suspension add 0.1 ml trypan blue. Wait 5-10 minutes. Count 4 corner squares and middle square of 5×5 array in hemocytometer. Blue cells are dead. Total count per 10 ml in culture flask=# live cells×6×10^5). (10) Maintain cell line by adding 3×10^6 cells to another 75 cm^2 culture flask. Bring to 30 ml with fresh medium. (11) For assay, add 1×10^6 cells to each well (6 wells per culture dish). Bring each well to 2 ml with fresh medium. (12) Incubate overnight at 37° C. (1) Aspirate medium. […] (3) Incubate […] with a small amount of shaking. (4) Add 2 ml MC-4000 to each well. (5) Place disks on surface and push through (1 mg/disc, 0.5 mg/disc, 0.25 mg/disc, etc. for crude extracts). (6) Incubate 48 hr. (making sure dishes remain level). (1) Add 2 ml neutral red medium. (2) Incubate overnight. […]"}, "[3]": {"system": "L-1210 murine leukemia cells", "assay": "Cytotoxicity assay, L1210 mouse leukemia cells", "assay_type": "cell-based", "details": "for viability at 200 µg/mL: in vitro, at 200 micrograms per milliliter, read-out: survival, L-1210", "protocol": "as §1, §2, §3, §16, §4, §5, §6, §7, §8, §9, §10, §11, §12, §13, §14, §15"}, "[4]": {"assay": "Stability at room temperature", "assay_type": "physicochemical"}, "[5]": {"details": "P-388, summary table, read-out: Test Cells at (ID 50), P-388"}, "[6]": {"details": "in vitro, P-388 murine leukemia cells, read-out: estimated ID50 (dose which kills 50% of the cells), P-388"}}, "note": "Where two headings read alike, the source gives them in different places.", "data": [{"smiles": "CC1(C)C=CC(=O)C(C(Cl)CBr)=C1", "note": "(stereo not drawn) [Composition 6]", "values": [{"measurement": "IC50", "setting": "[1]", "value": 5, "unit": "µg/mL"}, {"measurement": "IC50", "setting": "lung carcinoma A549", "value": 5, "unit": "µg/mL"}, {"measurement": "IC50", "setting": "[2]; [5]", "value": 0.5, "unit": "µg/mL"}]}, {"smiles": "CC(=O)OCC(Cl)C1=CC(C)(C)C=CC1=O", "note": "(stereo not drawn) [Compound 1]", "values": [{"measurement": "IC50", "setting": "[1]", "value": 10, "unit": "µg/mL"}, {"measurement": "IC50", "setting": "lung carcinoma A549", "value": 20, "unit": "µg/mL"}, {"measurement": "IC50", "setting": "[2]; [5]", "value": 5, "unit": "µg/mL"}, {"measurement": "IC50", "setting": "[2]; [6]", "value": 37, "unit": "µg/mL"}, {"measurement": "zone of cytotoxicity as the diameter", "setting": "cells", "value": 16, "unit": "mm"}, {"measurement": "minimal effective amounts (antiviral activity)", "setting": "HSV-I", "value": "50 to 100", "unit": "micrograms"}]}, {"smiles": "C=C(OC)C1=CC(C)(C)C=CC1=O", "note": "[Compound 2]", "values": [{"measurement": "IC50", "setting": "[1]", "value": 20, "unit": "µg/mL"}, {"measurement": "IC50", "setting": "lung carcinoma A549", "value": 30, "unit": "µg/mL"}, {"measurement": "IC50", "setting": "[2]; [5]", "value": 5, "unit": "µg/mL"}, {"measurement": "viability at 200 µg/mL", "setting": "[3]", "value": 15, "unit": "%"}]}, {"smiles": "COC(C)(OC)C1=CC(C)(C)C=CC1=O", "note": "[Compound 3]", "values": [{"measurement": "IC50", "setting": "[1]", "value": 30, "unit": "µg/mL"}, {"measurement": "IC50", "setting": "lung carcinoma A549", "value": 30, "unit": "µg/mL"}, {"measurement": "IC50", "setting": "[2]; [5]", "value": 10, "unit": "µg/mL"}, {"measurement": "IC50", "setting": "[2]; [6]", "value": 70, "unit": "µg/mL"}, {"measurement": "viability at 200 µg/mL", "setting": "[3]", "value": 17, "unit": "%"}]}, {"smiles": "CC(=O)C1=CC(C)(C)C=CC1=O", "note": "[Compound 4]", "values": [{"measurement": "IC50", "setting": "[1]", "value": 5, "unit": "µg/mL"}, {"measurement": "IC50", "setting": "lung carcinoma A549", "value": 5, "unit": "µg/mL"}, {"measurement": "IC50", "setting": "[2]; [5]", "value": 5, "unit": "µg/mL"}, {"measurement": "IC50", "setting": "[2]; [6]", "value": 70, "unit": "µg/mL"}, {"measurement": "viability at 200 µg/mL", "setting": "[3]", "value": 41, "unit": "%"}]}, {"smiles": "CC1(C)C=CC(=O)C(C2CO2)=C1", "note": "(stereo not drawn) [Compound 5]", "values": [{"measurement": "IC50", "setting": "[1]", "value": 5, "unit": "µg/mL"}, {"measurement": "IC50", "setting": "lung carcinoma A549", "value": 1, "unit": "µg/mL"}, {"measurement": "IC50", "setting": "[2]; [5]", "value": 10, "unit": "µg/mL"}, {"measurement": "IC50", "setting": "[2]; [6]", "value": 5, "unit": "µg/mL"}, {"measurement": "IC50", "setting": "[3]; L-1210 murine leukemia cells, read-out: estimated ID50, L-1210", "value": 0.7, "unit": "µg/mL"}, {"measurement": "viability at 200 µg/mL", "setting": "[3]", "value": 25, "unit": "%"}]}, {"smiles": "CC1(C)C=CC(=O)C(C(Cl)CO)=C1", "note": "(stereo not drawn) [Formula VIII]", "values": [{"measurement": "decomposition", "setting": "[4]", "value": "decompose at room temperature in two hours"}]}]}
